# From ChEMBL document CHEMBL1155632, “Sesquiterpenes from the basidiomycete Omphalotus illudens” (J Nat Prod, 2000)
# Active and inactive are the calls of the source. No cut-off for these calls is given here.
# Experiments:
# Bacillus subtilis = assay: Antibacterial activity against Bacillus subtilis ATCC 6633 at 10 ug/disk; type: functional, organism-based
# Escherichia coli = assay: Genotoxicity against Escherichia coli PQ37 at 50 ug/disk; type: toxicity, organism-based
# Staphylococcus aureus = assay: Antibacterial activity against Staphylococcus aureus ATCC 29213; type: functional, organism-based
# Pseudomonas aeruginosa = assay: Antibacterial activity against Pseudomonas aeruginosa ATCC 27853; type: functional, organism-based
# Candida albicans = assay: Antifungal activity against Candida albicans ATCC 32354; type: functional, organism-based
SMILES,Activity (Bacillus subtilis),Activity (Escherichia coli),Activity (Staphylococcus aureus),Activity (Pseudomonas aeruginosa),Activity (Candida albicans)
C/C(C=O)=C1\C(=O)C[C@]1(C)[C@H]1CC(C)(C)CC1=O,inactive,Not Active,inactive,inactive,inactive
C/C(CO)=C1\[C@@H](O)C[C@]1(C)[C@H]1CC(C)(C)C[C@@H]1O,inactive,Not Active,inactive,inactive,inactive
C/C(C=O)=C1\[C@@H](O)C[C@]1(C)[C@H]1CC(C)(C)C[C@@H]1O [ILLUDOSIN],Active,Active,inactive,inactive,inactive
CC1(C)C[C@H]2[C@@H](CC[C@@]2(C)O)[C@]2(C)CC2[C@H]1OC(=O)c1cc([N+](=O)[O-])cc([N+](=O)[O-])c1 (stereo not given in full),inactive,Not Active,inactive,inactive,inactive
